In this experiment the target is T1, EHMT2 (Homo sapiens, UniProt Q96KQ7).
T1 construct: host or cells: MDA-MB-231
T1 sequence (Q96KQ7 1-1210): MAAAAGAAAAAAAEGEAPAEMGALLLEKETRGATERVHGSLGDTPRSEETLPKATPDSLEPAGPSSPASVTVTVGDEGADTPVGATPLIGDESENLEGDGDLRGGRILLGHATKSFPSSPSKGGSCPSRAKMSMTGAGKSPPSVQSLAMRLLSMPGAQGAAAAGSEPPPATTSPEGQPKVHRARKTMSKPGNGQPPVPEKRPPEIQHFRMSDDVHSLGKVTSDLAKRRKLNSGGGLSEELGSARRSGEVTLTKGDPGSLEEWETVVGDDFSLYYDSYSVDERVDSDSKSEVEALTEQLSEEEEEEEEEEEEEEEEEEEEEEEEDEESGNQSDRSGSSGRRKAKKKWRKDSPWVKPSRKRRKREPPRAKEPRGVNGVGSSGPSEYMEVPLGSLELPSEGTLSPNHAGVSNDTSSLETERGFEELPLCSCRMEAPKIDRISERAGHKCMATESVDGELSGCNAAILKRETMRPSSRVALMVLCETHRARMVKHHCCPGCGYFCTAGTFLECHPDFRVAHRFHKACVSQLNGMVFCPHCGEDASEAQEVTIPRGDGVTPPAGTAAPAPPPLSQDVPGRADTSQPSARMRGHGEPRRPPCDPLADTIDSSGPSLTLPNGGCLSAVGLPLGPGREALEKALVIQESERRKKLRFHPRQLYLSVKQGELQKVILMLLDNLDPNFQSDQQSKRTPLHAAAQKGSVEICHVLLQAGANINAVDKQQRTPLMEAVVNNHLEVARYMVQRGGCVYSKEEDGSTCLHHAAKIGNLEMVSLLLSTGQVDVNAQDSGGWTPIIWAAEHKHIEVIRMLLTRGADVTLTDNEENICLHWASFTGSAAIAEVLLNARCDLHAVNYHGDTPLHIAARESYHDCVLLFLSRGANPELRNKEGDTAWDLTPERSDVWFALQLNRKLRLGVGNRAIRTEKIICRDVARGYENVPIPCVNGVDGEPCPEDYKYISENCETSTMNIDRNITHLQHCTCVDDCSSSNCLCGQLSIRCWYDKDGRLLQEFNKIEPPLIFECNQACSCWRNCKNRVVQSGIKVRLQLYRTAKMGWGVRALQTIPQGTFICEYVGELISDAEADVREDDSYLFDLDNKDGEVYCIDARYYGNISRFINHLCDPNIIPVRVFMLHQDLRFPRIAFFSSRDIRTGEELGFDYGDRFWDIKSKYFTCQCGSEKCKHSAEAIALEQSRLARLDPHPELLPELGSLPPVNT
The experiment in a line: MDA-MB-231 H3K9me2 in-cell Western assay (EHMT2 ICW). It is filed as cell-based. The following applies: Table II; MDA-MB-231 H3K9me2 in-cell Western; read-out: EHMT2 ICW (IC50 μM). The gist of the method: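 Cells seeded at 3,000/well onto pre-dispensed compound; 30 min RT, then 48 h 37 °C/5% CO2. PFA fix, block, α-H3K9me2 1:800 o/n 4 °C, 800CW secondary + DRAQ5. Odyssey scan 700/800 nm; ratio → % inhibition → 4-parameter IC50.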

For the molecule `COc1ccc(Nc2cc(NCC3CCN(C(C)=O)CC3)cnn2)cc1OCCCN1CCCC1` [Compound 185], the concentration for half-maximal inhibition (IC50) is over 10 µM.

As for `CNc1cc(C)nc(Nc2ccc(OC)c(OCCCN3CC[C@@H](F)C3)c2)n1` [Compound 186], the 50% inhibitory concentration (IC50) was 0.1 to 1 µM. `CNc1nc(Nc2ccc(OC)c(OCCCN3CCCC3)c2)ncc1F` [Compound 187]: the 50% inhibitory concentration (IC50) is 1 to 10 µM. For `CNc1cc(Nc2ccc(OC)c(OCCCN3CCCC3)c2)cnn1` [Compound 188], the IC50 was over 10 µM.

As to `COc1ccc(Nc2nccc(NCc3ccc4nccn4c3)n2)cc1OCCCN1CCCC1` [Compound 191], the concentration for half-maximal inhibition (IC50) is 0.1 to 1 µM. `COc1ccc(Nc2nccc(NC3CN(C(C)=O)C3)n2)cc1OCCCN1CCCC1` [Compound 192]: the concentration for half-maximal inhibition (IC50) is 1 to 10 µM. Next, `COc1ccc(Nc2nccc(NCCn3cccn3)n2)cc1OCCCN1CCCC1` [Compound 193]: 0.1 to 1 µM.

`COc1ccc(Nc2nccc(NCC3CCN(C(C)=O)CC3)n2)cc1OC(C)CCN1CCCC1` (centres unmarked) [Compound 195]: the IC50 lay in the range of 1 to 10 µM. The result for `COc1ccc(Nc2nccc(NCC3CCN(S(C)(=O)=O)CC3)n2)cc1OCCCN1CCCC1` [Compound 199] reads 1 to 10 µM. The result for `CCOC(=O)N1CCC(CNc2ccnc(Nc3ccc(OC)c(OCCCN4CCCC4)c3)n2)CC1` [Compound 203] reads 0.1 to 1 µM. The result for `COc1ccc(Nc2nccc(NCC3CCOCC3)n2)cc1OCCN1CCOCC1` [Compound 204] reads over 10 µM.

For the origin of these results see patent US20210198277A1, “AMINE-SUBSTITUTED ARYL OR HETEROARYL COMPOUNDS” (Epizyme, Inc., priority 2016, published 2021).
